Consider six compounds from patent publication US20090029970A1, “PAIN REMEDY CONTAINING ROCK INHIBITOR” (Astellas Pharma Inc., priority 2005, published 2009).

The subject of experiment [1] is rat MIA-induced osteoarthritis model. Nature of the experiment: Analgesic test by assessment of hindlimb weight distribution in monoiodoacetate (MIA)-induced osteoarthritis model. As to conditions: for ED50: Rattus norvegicus, read-out: Difference in weight between the right and left hindlimbs of rats: ED50. The class given is in vivo. The protocol: This disease model was prepared according to the description in Toxicol Pathol 31(6), 619-624 (2003). Female SD rats (6-7 weeks old, Charles River Laboratories Japan, Inc.) were anesthetized with halothane (Takeda Pharmaceutical Company, Limited) and given a single intra-articular injection of 1 mg of monosodium iodoacetate (MIA; Sigma, St. Louis) through the infrapatellar ligament of the right knee. MIA was dissolved with physiological saline and administered in a volume of 50 μL using a 27-gauge, 0.5-inch needle. Three weeks after the injection of MIA (establishment of pathology of osteoarthritis), single oral administration of a ROCK inhibitor or diclofenac was given and the weights of both hindlimbs of the rats were determined using an incapacitance tester (Linton Instrumentation, Norfork, UK) 2 hours after administration of the compounds to obtain ED50 values (Table 1).

Experiment [2] deals with MIA-induced osteoarthritis model. Nature of the experiment: Cartilage damage score of the distal end of the tibia in MIA-induced osteoarthritis model. The class given is in vivo, rat. The following applies: for score of morphological change of the distal end of the tibia (0-4): three weeks after injection, decreased from 3. Here is the method: This disease model was prepared according to the description in Toxicol Pathol 31 (6), 619-624 (2003). Female SD rats (6-7 weeks old, Charles River Laboratories Japan, Inc.) were anesthetized with halothane (Takeda Pharmaceutical Company, Limited) and given a single intra-articular injection of 1 mg of monosodium iodoacetate (MIA; Sigma, St. Louis) through the intrapatellar ligament of the right knee. MIA was dissolved with physiological saline and administered in a volume of 50 μL using a 27-gauge, 0.5-inch needle. Three weeks after the injection, a tibia was isolated and morphological change of the distal end of the tibia was scored (0-4; FIG. 1). About 8 rats were used for each group. Three weeks after the injection of MIA, cartilage damage of about score 3 was confirmed. Wf536 or Compound 2 was injected intra-articularly at a concentration of 0.03 μg/site, 0.3 μg/site or 3 μg/site 2 times a week (every 2 to 3 days) from the day of administration of MIA. […] 0: no damage; 1: damage on the surface of cartilage; 2: cartilage degradation; 3: cartilage degradation and subchondral bone damage; 4: cartilage degradation, subchondral bone damage and spur formation.

The test system of experiment [3] is bradykinin-induced joint pain model. Nature of the experiment: Pain alleviation effect on bradykinin-induced joint pain model. The class given is in vivo, rat. As to conditions: for pain score (0-4): 30 min before bradykinin, decreased from 2.6. Here is the method:
Preparation of the Joint Pain Model and Evaluation of a Level of Pain were conducted based on the description in Folia pharmacol. japon. 92, 17-27 (1988). Female SD rats (6-7 weeks old, Charles River Laboratories Japan, Inc.) were anesthetized with halothane (Takeda Pharmaceutical Company, Limited) and given a single intra-articular injection of a saline solution of Wf536 or Compound 2 into the knee joint cavity of the hindlimb using a 27-gauge, 0.5-inch needle at a dose of 0.03 μg/site, 0.3 μg/site or 3 μg/site. Thirty minutes after administration of the drug, a physiological saline solution of bradykinin was injected into the knee joint cavity of the hindlimb (3 μM/site/50 μl), then the response to pain of the rat after administration of bradykinin was observed. The level of pain was scored as five grade point (0-4) as follows: 0: no lameness to lameness for 10 seconds; 1: lameness for 10 to 30 seconds; 2: lift of the limb within 10 seconds or lameness for 31 or more seconds; 3: three-legged gait within 10 seconds followed by lameness; and 4: three-legged gait for 10 or more seconds followed by lameness. About 10 rat models were used in each experimental group. It was confirmed that administration of bradykinin leads to response to pain scored as about 3.

Setting [4] is: female SD rats, single oral administration three weeks after MIA injection, measured 2 hours after administration.

For `NC(=O)c1cc(F)c(N[C@H]2CC[C@H](N)CC2)cc1F` [Compound 1, 4-[(trans-4-aminocyclohexyl)amino]-2,5-difluorobenzamide], the ED50 in experiment [1] (setting [4]) is less than 10 mg/kg.

Turning to `NC(=O)c1cc(Cl)c(N[C@H]2CC[C@H](N)CC2)cc1F` [Compound 2, 4-[(trans-4-aminocyclohexyl)amino]-5-chloro-2-fluorobenzamide], the “score of morphological change of the distal end of the tibia (0-4)” value in experiment [2] (intra-articular 0.3 μg/site 2 times a week from the day of MIA) is reported as 2.3. Also, the ED50 in experiment [1] (setting [4]) was less than 10 mg/kg. The “pain score (0-4)” value in experiment [3] (single intra-articular injection 0.3 μg/site) is given as 1.1.

On to `CC(C)(N)c1ccc(-c2ccc3[nH]ncc3c2)cc1.Cl.Cl` [Compound 3, 2-[4-(1H-indazol-5-yl)phenyl]-2-propanamine dihydrochloride], for which, in experiment [1] (setting [4]), the ED50 was less than 10 mg/kg.

In the case of `O=C(O)Cc1ccccc1Nc1c(Cl)cccc1Cl` [Diclofenac], the 50% effective dose (ED50) in experiment [1] (setting [4]) was greater than 30 mg/kg. The “efficacy on pain (in words)” value in experiment [1] (single dose given after establishment of the disease in the rat MIA-induced osteoarthritis model) is reported as “ineffective”.

As to `Cl.O=S(=O)(c1cccc2cnccc12)N1CCCNCC1` [Fasudil, 5-(hexahydro-1H-1,4-diazepin-1-ylsulfonyl)isoquinoline hydrochloride], in experiment [1] (setting [4]), the ED50 is less than 10 mg/kg.

Regarding `C[C@@H](N)c1ccc(C(=O)Nc2ccncc2)cc1.Cl` [Wf536, 4-[(1R)-1-aminoethyl]-N-(4-piridyl)benzamide monohydrochloride], the “score of morphological change of the distal end of the tibia (0-4)” value in experiment [2] (intra-articular 3 μg/site 2 times a week from the day of MIA) is on record as 2.2. For the same compound, the “MIA-induced cartilage damage (in words)” value in experiment [2] (intra-articular 0.03, 0.3 or 3 μg/site 2 times a week, three weeks) was “dose-dependently improved the MIA-induced cartilage damage”. In experiment [1] (setting [4]), the “Difference in weight between the right and left hindlimbs of rats: ED50” value was less than 30 mg/kg. The “response to pain (in words)” value in experiment [3] (intra-articular 0.03, 0.3 or 3 μg/site) was “dose-dependently improved the response to pain”. Further, the “pain score (0-4)” value in experiment [3] (single intra-articular injection 3 μg/site) is listed as 1.2.

The term ED50 denotes the dose at which the effect has come halfway, by size or by number of responders.
